Each structure is given as a SMILES string. Read-outs that look alike come from different tables or passages of the source.

One test deals with T1, Rat α4β2 (Rattus norvegicus, UniProt P09483+P12390).
T1 construct: Preparation of membranes from rat tissues; Rat cortices were obtained from Analytical Biological Services; tissue Analytical Biological Services, Incorporated (ABS, Wilmington, Del.); host or cells: rat cortex membranes (female Sprague-Dawley)
Nature of the test: Competition binding to rat α4β2 receptors in membrane preparations. The protocol:
(§1) Preparation of membranes from rat tissues. Rat cortices were obtained from Analytical Biological Services, Incorporated (ABS, Wilmington, Del.). Tissues were dissected from female Sprague-Dawley rats, frozen and shipped on dry ice. Tissues were stored at −20° C. until needed for membrane preparation. Cortices from 10 rats were pooled and homogenized by Polytron (Kinematica GmbH, Switzerland) in 10 volumes (weight:volume) of ice-cold preparative buffer (KCl, 11 mM; KH2PO4, 6 mM; NaCl 137 mM; Na2HPO4 8 mM; HEPES (free acid), 20 mM; iodoacetamide, 5 mM; EDTA, 1.5 mM; 0.1 mM PMSF pH 7.4). The resulting homogenate was centrifuged at 40,000 g for 20 minutes at 4° C. and the resulting pellet was resuspended in 20 volumes of ice-cold water. After 60-minute incubation at 4° C., a new pellet was collected by centrifugation at 40,000 g for 20 minutes at 4° C. The final pellet was resuspended in preparative buffer and stored at −20° C. On the day of the assay, tissue was thawed, centrifuged at 40,000 g for 20 minutes and then resuspended in PBS (Dulbecco's Phosphate Buffered Saline, Life Technologies, pH 7.4) to a final concentration of 2-3 mg protein/mL. Protein concentrations were determined using the Pierce BCA Protein Assay kit (Pierce Biotechnology, Rockford, Ill.), with bovine serum albumin as the standard. Preparation of membranes from clonal cell lines. Cells were harvested in ice-cold PBS, pH 7.4, then homogenized with a polytron (Brinkmann Instruments, Westbury, N.Y.). Homogenates were centrifuged at 40,000 g for 20 minutes (4° C.). The pellet was resuspended in PBS and protein concentration determined using the Pierce BCA Protein Assay kit (Pierce Biotechnology, Rockford, Ill.).
(§2) Competition binding to receptors in membrane preparations. Binding to nicotinic receptors was assayed on membranes using standard methods adapted from published procedures (Lippiello and Fernandes, 1986; Davies et al., 1999). In brief, membranes were reconstituted from frozen stocks (approximately 0.2 mg protein) and incubated for 2 h on ice in […] assay buffer (PBS) in the presence of competitor compound (0.001 nM to […]) and radioligand. [^3H]-nicotine (L-(−)-[N-methyl-3H]-nicotine, 69.5 Ci/mmol, Perkin-Elmer Life Sciences) was used for human α4β2 binding studies. [^3H]-epibatidine (52 Ci/mmol, Perkin-Elmer Life Sciences) was used for binding studies at the other receptor subtypes. Incubation was terminated by rapid filtration on a multimanifold tissue harvester (Brandel, Gaithersburg, Md.) using GF/B filters presoaked in 0.33% polyethyleneimine (w/v) to reduce non-specific binding. Filters were washed 3 times and the radioactivity retained was determined by liquid scintillation counting.
(§3) Binding data analysis. Binding data were expressed as percent total control binding. Replicates for each point were averaged and plotted against the log of drug concentration. The IC50 (concentration of the compound that produces 50% inhibition of binding) was determined by least squares non-linear regression using GraphPad Prism software (GraphPAD, San Diego, Calif.). Ki was calculated using the Cheng-Prusoff equation (Cheng and Prusoff, 1973).

The target of a further test is human α4β2 (Homo sapiens, UniProt P17787+P43681). The test is described as follows: Competition binding to human α4β2 receptors in membrane preparations. The protocol: (§4) SH-EP1/human α4β2 (Eaton et al., 2003), SH-EP1/human α4β4 (Gentry et al., 2003), SH-EP1/α6β3β4α5 (Grinevich et al., 2005), TE671/RD and SH-SY5Y cell lines (obtained from Dr. Ron Lukas, Barrow Neurological Institute) were maintained in proliferative growth phase in Dulbecco's modified Eagle's medium (Gibco/BRL) with 10% horse serum (Gibco BRL), 5% fetal bovine serum (HyClone, Logan Utah), 1 mM sodium pyruvate, 4 mM L-glutamine. For maintenance of stable transfectants, the α4β2 and α4β4 cell media was supplemented with 0.25 mg/mL zeocin and 0.13 mg/mL hygromycin B. Selection was maintained for the α6β3β4α5 cells with 0.25 mg/mL of zeocin, 0.13 mg/mL of hygromycin B, 0.4 mg/mL of geneticin, and 0.2 mg/mL of blasticidin. HEK/human α7/RIC3 cells (obtained from J. Lindstrom, U. Pennsylvania) were maintained in proliferative growth phase in Dulbecco's modified Eagle's medium (Gibco/BRL) with 10% fetal bovine serum (HyClone, Logan Utah), 1 mM sodium pyruvate, 4 mM L-glutamine, 0.4 mg/mL geneticin; 0.2 mg/ml hygromycin B.
as §1, §2
(§5) Binding data analysis. Binding data were expressed as percent total control binding. Replicates for each point were averaged and plotted against the log of drug concentration. […]

The next test addresses T2, Rat α7 (Rattus norvegicus, UniProt Q05941).
T2 construct: Preparation of membranes from rat tissues; Rat cortices were obtained from Analytical Biological Services; tissue Analytical Biological Services, Incorporated (ABS, Wilmington, Del.); host or cells: rat brain membranes (only cortex is described)
The test is described as follows: Competition binding to rat α7 receptors in membrane preparations. The note with it: membranes, [3H]-epibatidine competition; Ki by Cheng-Prusoff; read-out: Rat α7 Ki. The protocol: as §1, §2, §3

The target in the next test is T3, Human α7 (Homo sapiens, UniProt P36544).
T3 construct: host or cells: HEK cells co-expressing RIC3
Nature of the test: Competition binding to human α7 receptors in membrane preparations. The protocol: as §4, §1, §2, §5

Where [1] appears, read: membranes, [3H]-nicotine competition, Ki by Cheng-Prusoff, read-out: human α4β2 Ki.
Setting [2] is: membranes, [3H]-epibatidine competition, Ki by Cheng-Prusoff, read-out: Human α7 Ki.
Where [3] appears, read: membranes, [3H]-epibatidine competition, Ki by Cheng-Prusoff, read-out: Rat α4β2 Ki.

Regarding `CC(C)Oc1cncc(N2CC3CNCC(C2)O3)c1` [3-(5-isopropoxypyridin-3-yl)-9-oxa-3,7-diazabicyclo[3.3.1]nonane], the Ki (commonly the equilibrium dissociation constant of an inhibitor or competing ligand from its target) at Rat α4β2 is 1.3 nM; on human α4β2 (setting [1]), 0.9 nM; on Rat α7, 61000 nM.
Take `c1cc2cc(N3CC4CNCC(C3)O4)cnc2o1` [3-(furo[2,3-b]pyridin-5-yl)-9-oxa-3,7-diazabicyclo[3.3.1]nonane]: the Ki at Rat α4β2 was 23 nM; at human α4β2 (setting [1]) it was 48 nM; at Human α7 (setting [2]), 6600 nM.
On the same counts, the results for `FC(F)Oc1cc(N2CC3CNCC(C2)O3)cnc1Cl` [3-(6-chloro-5-(difluoromethoxy)pyridin-3-yl)-9-oxa-3,7-diazabicyclo[3.3.1]nonane] are 0.08 nM, 0.16 nM and 560 nM.
As for `FC(F)Oc1cncc(N2CC3CNCC(C2)O3)c1` [3-(5-(difluoromethoxy)pyridin-3-yl)-9-oxa-3,7-diazabicyclo[3.3.1]nonane], the figures for the Ki on Rat α4β2 (setting [3]), at human α4β2 and at Human α7 (setting [2]) were 0.36 nM, 0.42 nM and 1600 nM, respectively.
On the same counts, the results for `Clc1ccccc1Oc1cncc(N2CC3CNCC(C2)O3)c1` [3-(5-(2-chlorophenoxy)pyridin-3-yl)-9-oxa-3,7-diazabicyclo[3.3.1]nonane] are 14 nM, 3.6 nM and 430 nM.
On to `c1ncc(N2CC3CNCC(C2)O3)cc1C1CC1` [3-(5-cyclopropylpyridin-3-yl)-9-oxa-3,7-diazabicyclo[3.3.1]nonane], for which the Ki at Rat α4β2 stood at 6.4 nM; on human α4β2 (setting [1]), 2 nM; on Human α7 (setting [2]), 1300 nM.
Take `FCCCOc1cc(N2CC3CNCC(C2)O3)cnc1Cl` [3-(5-(3-fluoropropoxy)-6-chloropyridin-3-yl)-9-oxa-3,7-diazabicyclo[3.3.1]nonane]: the figures for the Ki at Rat α4β2, on human α4β2 (setting [1]) and at Human α7 (setting [2]) were 0.73 nM, 0.38 nM and 1900 nM, respectively.
For the compound `FC(F)(F)c1cncc(N2CC3CNCC(C2)O3)c1` [3-(5-trifluoromethylpyridin-3-yl)-9-oxa-3,7-diazabicyclo[3.3.1]nonane], the Ki at Rat α4β2 was determined as 9.7 nM; on human α4β2 (setting [1]), 3.8 nM; on Rat α7, 17000 nM.
Take `Cc1cncc(N2CC3CN(C)CC(C2)O3)c1` [3-(5-methylpyridin-3-yl)-7-methyl-9-oxa-3,7-diazabicyclo[3.3.1]nonane]: the Ki at Rat α4β2 (setting [3]) came out at 370 nM; at human α4β2 (setting [1]) it was 25 nM; at Human α7 (setting [2]) it was 8700 nM.
For `CN1CC2CN(c3cncc(F)c3)CC(C1)O2` [3-(5-fluoropyridin-3-yl)-7-methyl-9-oxa-3,7-diazabicyclo[3.3.1]nonane] the same measures were 280 nM, 33 nM and 2100 nM.
With `N#Cc1cc(N2CC3CNCC(C2)O3)cnc1F` [3-(5-cyano-6-fluoropyridin-3-yl)-9-oxa-3,7-diazabicyclo[3.3.1]nonane], the Ki is 24 nM at Rat α4β2, 19 nM at human α4β2 (setting [1]) and 16000 nM at Human α7 (setting [2]).
For the compound `CN1CC2CN(c3cccnc3)CC(C1)O2` [3-methyl-7-(pyridin-3-yl)-9-oxa-3,7-diazabicyclo[3.3.1]nonane], the figures for the Ki on Rat α4β2 (setting [3]), at human α4β2 (setting [1]) and on Human α7 (setting [2]) were 180 nM, 95 nM and 5900 nM, respectively.
For `FCCOc1cc(N2CC3CNCC(C2)O3)cnc1Cl` [3-(5-(2-fluoroethoxy)-6-chloropyridin-3-yl)-9-oxa-3,7-diazabicyclo[3.3.1]nonane], the Ki was 0.41 nM on Rat α4β2, 0.21 nM at human α4β2 (setting [1]) and 1600 nM on Human α7 (setting [2]).
For `FCCCCOc1cc(N2CC3CNCC(C2)O3)cnc1Cl` [3-(5-(4-fluorobutoxy)-6-chloropyridin-3-yl)-9-oxa-3,7-diazabicyclo[3.3.1]nonane] the same measures were 0.35 nM, 0.3 nM and 1500 nM.
Turning to `c1cnc(N2CC3CNCC(C2)O3)cn1` [3-(pyrazin-2-yl)-9-oxa-3,7-diazabicyclo[3.3.1]nonane], the Ki on Rat α4β2 (setting [3]) was found to be 250 nM; on human α4β2 (setting [1]), 37 nM; at Human α7 (setting [2]), 2200 nM.
Take `N#Cc1ncc(N2CC3CNCC(C2)O3)cc1OC(F)F` [3-(6-cyano-5-(difluoromethoxy)pyridin-3-yl)-9-oxa-3,7-diazabicyclo[3.3.1]nonane]: the Ki on Rat α4β2 was 0.12 nM; on human α4β2 (setting [1]) it was 0.26 nM; on Human α7 (setting [2]) it was 940 nM.
On to `Clc1ccc(N2CC3CNCC(C2)O3)nn1` [3-(6-chloropyridazin-3-yl)-9-oxa-3,7-diazabicyclo[3.3.1]nonane], for which the Ki at Rat α4β2 (setting [3]) is 96 nM; on human α4β2, 63 nM; on Human α7 (setting [2]), 1300 nM.
Consider `N#Cc1ccc(N2CC3CNCC(C2)O3)cn1` [3-(6-cyanopyridin-3-yl)-9-oxa-3,7-diazabicyclo[3.3.1]nonane], for which the Ki at Rat α4β2 (setting [3]) was found to be 290 nM; on human α4β2 (setting [1]), 42 nM; on Human α7 (setting [2]), 8100 nM.
On the same counts, the results for `COc1cccc(N2CC3CNCC(C2)O3)c1` [3-(3-methoxyphenyl)-9-oxa-3,7-diazabicyclo[3.3.1]nonane] are 110 nM, 33 nM and 800 nM.
Consider `COc1cc(N2CC3CNCC(C2)O3)cnc1F` [3-(5-methoxy-6-fluoropyridin-3-yl)-9-oxa-3,7-diazabicyclo[3.3.1]nonane], for which the Ki at Rat α4β2 (setting [3]) is 1.1 nM; on human α4β2, 0.43 nM; at Human α7 (setting [2]), 1000 nM.
Regarding `N#Cc1cncc(N2CC3CNCC(C2)O3)c1` [3-(5-cyanopyridin-3-yl)-9-oxa-3,7-diazabicyclo[3.3.1]nonane], the Ki on Rat α4β2 was 11 nM; at human α4β2 (setting [1]) it was 2.7 nM; on Human α7 (setting [2]), 2000 nM.
For `Clc1ncc(N2CC3CNCC(C2)O3)cc1C1CC1` [3-(5-cyclopropyl-6-chloropyridin-3-yl)-9-oxa-3,7-diazabicyclo[3.3.1]nonane], the Ki on Rat α4β2 was 14 nM; at human α4β2 (setting [1]), 0.18 nM; on Human α7 it was 87 nM.
For the compound `c1ncc(N2CC3CNCC(C2)O3)cc1OCC1CC1` [3-(5-(cyclopropylmethoxy)pyridin-3-yl)-9-oxa-3,7-diazabicyclo[3.3.1]nonane], the Ki amounted to 2.9 nM on Rat α4β2, 0.5 nM on human α4β2 (setting [1]) and 9300 nM at Rat α7.
On to `FC(F)(F)c1ccc(N2CC3CNCC(C2)O3)cn1` [3-(6-trifluoromethylpyridin-3-yl)-9-oxa-3,7-diazabicyclo[3.3.1]nonane], for which the Ki on Rat α4β2 (setting [3]) amounted to 48 nM; on human α4β2 it was 6.8 nM; on Human α7 (setting [2]) it was 1900 nM.

Source of the values: patent US20110257168A1, “DERIVATIVES OF OXABISPIDINE AS NEURONAL NICOTINIC ACETYLCHOLINE RECEPTOR LIGANDS” (Targacept, Inc., priority 2008, published 2011).
